Data published in ChEMBL document CHEMBL4616604, “Comparing a thioglycosylated chlorin and phthalocyanine as potential theranostic agents” (Bioorg Med Chem, 2020).

How the values were obtained:
MCF7 [1] = assay: Dark cytotoxicity against human MCF7 cells assessed as inhibition of cell viability incubated for 24 hrs by CellTiter Blue assay; type: cell-based; details: MCF7, 24 h
[2] = Drug uptake in human MCF7 cells at 1 uM incubated for 24 hrs by fluorescence imaging analysis; type: ADME, cell-based; details: mcf7, 24 h
MCF7 [3] = assay: Phototoxicity against human MCF7 cells assessed as inhibition of cell viability incubated with compound for 2 hrs followed by irradiation with 0.92 mW cm'-2 light and measured after overnight incubation by CellTiter Blue assay; type: functional, cell-based; details: MCF7, light or radiation study
[4] = Drug uptake in human MDA-MB-231 cells at 1 uM incubated for 24 hrs by fluorescence imaging analysis; type: ADME, cell-based; details: mda-mb-231, 24 h
[5] = Drug uptake in athymic mouse xenografted with HNSCC cells at 0.1 mM administered iv measured up to 4 days post-drug administration by IVIS spectrum in vivo fluorescence imaging analysis; type: ADME, organism-based; details: 96 h, 100 µM
MDA-MB-231 [6] = assay: Phototoxicity against human MDA-MB-231 cells assessed as inhibition of cell viability incubated with compound for 2 hrs followed by irradiation with 0.92 mW cm'-2 light and measured after overnight incubation by CellTiter Blue assay; type: functional, cell-based; details: MDA-MB-231, light or radiation study
[7] = Time dependent drug uptake in human MDA-MB-231 cells at 10 uM incubated up to 24 hrs by spectrofluorometric analysis; type: ADME, cell-based; details: mda-mb-231, 24 h
[8] = Time dependent drug uptake in human MCF7 cells at 10 uM incubated up to 24 hrs by spectrofluorometric analysis; type: ADME, cell-based; details: mcf7, 24 h
MDA-MB-231 [9] = assay: Dark cytotoxicity against human MDA-MB-231 cells assessed as inhibition of cell viability incubated for 24 hrs by CellTiter Blue assay; type: cell-based; details: MDA-MB-231, 24 h

CN1CC2c3nc(c(-c4c(F)c(F)c(S[C@@H]5O[C@H](CO)[C@@H](O)[C@H](O)[C@H]5O)c(F)c4F)c4ccc([nH]4)c(-c4c(F)c(F)c(S[C@@H]5O[C@H](CO)[C@@H](O)[C@H](O)[C@H]5O)c(F)c4F)c4nc(c(-c5c(F)c(F)c(S[C@@H]6O[C@H](CO)[C@@H](O)[C@H](O)[C@H]6O)c(F)c5F)c5ccc([nH]5)c3-c3c(F)c(F)c(S[C@@H]5O[C@H](CO)[C@@H](O)[C@H](O)[C@H]5O)c(F)c3F)C=C4)C2C1 (some centres undefined)
Active: Drug uptake [2] | Drug uptake [4] | Drug uptake [5] | Drug uptake [7] | Drug uptake [8]
1000 to 2000 nM: IC50 (MCF7 [3]) | IC50 (MDA-MB-231 [6])
> 100000 nM: IC50 (MCF7 [1]) | IC50 (MDA-MB-231 [9])
